By EC50 is commonly meant the concentration giving half of the maximal effect. Higher therefore signals a less potent agent.

Here are results for 26 compounds from patent US8729091B2, “4-phenoxy-nicotinamide or 4-phenoxy-pyrimidine-5-carboxamide compounds” (Hoffmann-La Roche Inc., priority 2010, dated 2014).

The assay has as its target T1, human GPBAR1 receptor (Homo sapiens, UniProt Q8TDU6).
T1 construct: expressed in transfected cells
T1 sequence (Q8TDU6 1-330): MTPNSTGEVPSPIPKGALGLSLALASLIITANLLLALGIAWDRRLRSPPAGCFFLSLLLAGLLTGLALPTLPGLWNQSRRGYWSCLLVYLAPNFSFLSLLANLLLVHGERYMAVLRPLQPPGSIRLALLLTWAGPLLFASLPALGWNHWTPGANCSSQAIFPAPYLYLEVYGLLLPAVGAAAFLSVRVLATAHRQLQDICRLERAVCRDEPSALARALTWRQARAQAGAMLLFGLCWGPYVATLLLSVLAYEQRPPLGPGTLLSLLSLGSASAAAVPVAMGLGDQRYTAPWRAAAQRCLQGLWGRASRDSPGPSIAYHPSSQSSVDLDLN
Put plainly: functional cAMP assay in CHO-dhfr(minus) cells expressing human GPBAR1 receptors. The conditions noted are these: cAMP increase (TR-FRET) in CHO-dhfr(minus) cells expressing human GPBAR1; compounds incubated 30 min at 30° C. Format: cell-based. The method, then:
The final clone was verified by DNA sequence analysis. The plasmid was transfected into CHO cells deficient in dihydrofolate reductase activity (CHO-dhfr−) using Lipofectamine plus (Invitrogen). Clones were isolated in limited dilution conditions and identified by activities in the cAMP assay using lithocholic acid as agonist.
The growth medium was exchanged with Krebs Ringer Bicarbonate buffer with 1 mM IBMX and incubated at 30° C. for 30 min. Compounds were added to a final assay volume of 100 μl and incubated for 30 min at 30° C. […] The time-resolved energy transfer is measured by a TRF reader (Evotec Technologies GmbH, Hamburg Germany), equipped with a ND:YAG laser as excitation source.
EC50 values were determined using Activity Base analysis (ID Business Solution, Limited). […] Specificity for GPBAR1 was tested in non-transfected CHO cells in the same assay as above.
`CN(CC(=O)O)C(=O)c1cc(Cl)c(Oc2ccncc2C(=O)N2CCN(C3CC3)c3ccccc32)cc1Cl` [Example 32, ({2,5-Dichloro-4-[3-(4-cyclopropyl-3,4-dihydro-2H-quinoxaline-1-carbonyl)-pyridin-4-yloxy]-benzoyl}-methyl-amino)-acetic acid] gave an EC50 of 900 nM.

The compound `CCOC(=O)CCNC(=O)c1cc(Cl)c(Oc2ccncc2C(=O)N2CCN(C3CC3)c3ccccc32)cc1Cl` [Example 33, 3-{2,5-Dichloro-4-[3-(4-cyclopropyl-3,4-dihydro-2H-quinoxaline-1-carbonyl)-pyridin-4-yloxy]-benzoylamino}-propionic acid ethyl ester] yielded an EC50 of 20 nM.

Compound `O=C(O)CCNC(=O)c1cc(Cl)c(Oc2ccncc2C(=O)N2CCN(C3CC3)c3ccccc32)cc1Cl` [Example 34, 3-{2,5-Dichloro-4-[3-(4-cyclopropyl-3,4-dihydro-2H-quinoxaline-1-carbonyl)-pyridin-4-yloxy]-benzoylamino}-propionic acid] registered an EC50 of 300 nM.

`O=C(NCCS(=O)(=O)O)c1cc(Cl)c(Oc2ccncc2C(=O)N2CCN(C3CC3)c3ccccc32)cc1Cl` [Example 35, 2-{2,5-Dichloro-4-[3-(4-cyclopropyl-3,4-dihydro-2H-quinoxaline-1-carbonyl)-pyridin-4-yloxy]-benzoylamino}-ethanesulfonic acid] showed an EC50 of 100 nM.

`CN(CCS(=O)(=O)O)C(=O)c1cc(Cl)c(Oc2ccncc2C(=O)N2CCN(C3CC3)c3ccccc32)cc1Cl` [Example 36, 2-({2,5-Dichloro-4-[3-(4-cyclopropyl-3,4-dihydro-2H-quinoxaline-1-carbonyl)-pyridin-4-yloxy]-benzoyl}-methyl-amino)-ethanesulfonic acid] yielded an EC50 of 300 nM.

Take `O=C(NCCCS(=O)(=O)O)c1cc(Cl)c(Oc2ccncc2C(=O)N2CCN(C3CC3)c3ccccc32)cc1Cl` [Example 37, 3-{2,5-Dichloro-4-[3-(4-cyclopropyl-3,4-dihydro-2H-quinoxaline-1-carbonyl)-pyridin-4-yloxy]-benzoylamino}-propane-1-sulfonic acid]: the EC50 is 900 nM.

`O=C(Nc1nnn[nH]1)c1cc(Cl)c(Oc2ccncc2C(=O)N2CCN(C3CC3)c3ccccc32)cc1Cl` [Example 38, 2,5-Dichloro-4-[3-(4-cyclopropyl-3,4-dihydro-2H-quinoxaline-1-carbonyl)-pyridin-4-yloxy]-N-(1H-tetrazol-5-yl)-benzamide] returned a 50% effective concentration (EC50) of 40 nM.

The compound `O=C(NCc1nnn[nH]1)c1cc(Cl)c(Oc2ccncc2C(=O)N2CCN(C3CC3)c3ccccc32)cc1Cl` [Example 39, 2,5-Dichloro-4-[3-(4-cyclopropyl-3,4-dihydro-2H-quinoxaline-1-carbonyl)-pyridin-4-yloxy]-N-(1H-tetrazol-5-ylmethyl)-benzamide] had an EC50 of 400 nM.

On to `O=C(O)CCCNC(=O)c1cc(Cl)c(Oc2ccncc2C(=O)N2CCN(C3CC3)c3ccccc32)cc1Cl` [Example 40, 4-{2,5-Dichloro-4-[3-(4-cyclopropyl-3,4-dihydro-2H-quinoxaline-1-carbonyl)-pyridin-4-yloxy]-benzoylamino}-butyric acid], for which a half-maximal response (EC50) required 200 nM.

With `COC(=O)c1cc(NC(=O)c2cc(Cl)c(Oc3ccncc3C(=O)N3CCN(C4CC4)c4ccccc43)cc2Cl)cn1C` [Example 41, 4-{2,5-Dichloro-4-[3-(4-cyclopropyl-3,4-dihydro-2H-quinoxaline-1-carbonyl)-pyridin-4-yloxy]-benzoylamino}-1-methyl-1H-pyrrole-2-carboxylic acid methyl ester], the midpoint of the response, the EC50, lay at 100 nM.

The compound `Cn1cc(NC(=O)c2cc(Cl)c(Oc3ccncc3C(=O)N3CCN(C4CC4)c4ccccc43)cc2Cl)cc1C(=O)O` [Example 42, 4-{2,5-Dichloro-4-[3-(4-cyclopropyl-3,4-dihydro-2H-quinoxaline-1-carbonyl)-pyridin-4-yloxy]-benzoylamino}-1-methyl-1H-pyrrole-2-carboxylic acid] yielded an EC50 of 100 nM.

The compound `COC(=O)c1ccc(NC(=O)c2cc(Cl)c(Oc3ccncc3C(=O)N3CCN(C4CC4)c4ccccc43)cc2Cl)cc1` [Example 43, 4-{2,5-Dichloro-4-[3-(4-cyclopropyl-3,4-dihydro-2H-quinoxaline-1-carbonyl)-pyridin-4-yloxy]-benzoylamino}-benzoic acid methyl ester] showed an EC50 of 100 nM.

For `O=C(O)c1ccc(NC(=O)c2cc(Cl)c(Oc3ccncc3C(=O)N3CCN(C4CC4)c4ccccc43)cc2Cl)cc1` [Example 44, 4-{2,5-Dichloro-4-[3-(4-cyclopropyl-3,4-dihydro-2H-quinoxaline-1-carbonyl)-pyridin-4-yloxy]-benzoylamino}-benzoic acid], the EC50 was 20 nM.

Turning to `CCOC(=O)c1sc(NC(=O)c2cc(Cl)c(Oc3ccncc3C(=O)N3CCN(C4CC4)c4ccccc43)cc2Cl)nc1C` [Example 45, 2-{2,5-Dichloro-4-[3-(4-cyclopropyl-3,4-dihydro-2H-quinoxaline-1-carbonyl)-pyridin-4-yloxy]-benzoylamino}-4-methyl-thiazole-5-carboxylic acid ethyl ester], the EC50 is 600 nM.

Turning to `Cc1nc(NC(=O)c2cc(Cl)c(Oc3ccncc3C(=O)N3CCN(C4CC4)c4ccccc43)cc2Cl)sc1C(=O)O` [Example 46, 2-{2,5-Dichloro-4-[3-(4-cyclopropyl-3,4-dihydro-2H-quinoxaline-1-carbonyl)-pyridin-4-yloxy]-benzoylamino}-4-methyl-thiazole-5-carboxylic acid], the EC50 came to 30 nM.

`CCOC(=O)c1nnc(NC(=O)c2cc(Cl)c(Oc3ccncc3C(=O)N3CCN(C4CC4)c4ccccc43)cc2Cl)s1` [Example 47, 5-{2,5-Dichloro-4-[3-(4-cyclopropyl-3,4-dihydro-2H-quinoxaline-1-carbonyl)-pyridin-4-yloxy]-benzoylamino}-[1,3,4]thiadiazole-2-carboxylic acid ethyl ester] showed an EC50 of 100 nM.

`O=C(Nc1nncs1)c1cc(Cl)c(Oc2ccncc2C(=O)N2CCN(C3CC3)c3ccccc32)cc1Cl` [Example 48, 2,5-Dichloro-4-[3-(4-cyclopropyl-3,4-dihydro-2H-quinoxaline-1-carbonyl)-pyridin-4-yloxy]-N-[1,3,4]thiadiazol-2-yl-benzamide] yielded an EC50 of 200 nM.

The compound `O=C(NCCO)c1cc(Cl)c(Oc2ccncc2C(=O)N2CCN(C3CC3)c3ccccc32)cc1Cl` [Example 49, 2,5-Dichloro-4-[3-(4-cyclopropyl-3,4-dihydro-2H-quinoxaline-1-carbonyl)-pyridin-4-yloxy]-N-(2-hydroxy-ethyl)-benzamide] displayed an EC50 of 40 nM.

As for `O=C(c1cc(Cl)c(Oc2ccncc2C(=O)N2CCN(C3CC3)c3ccccc32)cc1Cl)N(CCO)CCO` [Example 50, 2,5-Dichloro-4-[3-(4-cyclopropyl-3,4-dihydro-2H-quinoxaline-1-carbonyl)-pyridin-4-yloxy]-N,N-bis-(2-hydroxy-ethyl)-benzamide], the concentration giving a half-maximal response (EC50) stood at 1100 nM.

Compound `O=C(NC(CO)CO)c1cc(Cl)c(Oc2ccncc2C(=O)N2CCN(C3CC3)c3ccccc32)cc1Cl` [Example 51, 2,5-Dichloro-4-[3-(4-cyclopropyl-3,4-dihydro-2H-quinoxaline-1-carbonyl)-pyridin-4-yloxy]-N-(2-hydroxy-1-hydroxymethyl-ethyl)-benzamide] displayed an EC50 of 300 nM.

The compound `NC(=O)c1cc(Cl)c(Oc2ccncc2C(=O)N2CCN(C3CC3)c3ccccc32)cc1Cl` [Example 52, 2,5-Dichloro-4-[3-(4-cyclopropyl-3,4-dihydro-2H-quinoxaline-1-carbonyl)-pyridin-4-yloxy]-benzamide] gave an EC50 of 10 nM.

Consider `NC(=O)CCNC(=O)c1cc(Cl)c(Oc2ccncc2C(=O)N2CCN(C3CC3)c3ccccc32)cc1Cl` [Example 53, N-(2-Carbamoyl-ethyl)-2,5-dichloro-4-[3-(4-cyclopropyl-3,4-dihydro-2H-quinoxaline-1-carbonyl)-pyridin-4-yloxy]-benzamide], for which it took 100 nM to reach a half-maximal effect (EC50).

The compound `COC(=O)CCC(CCC(=O)OC)NC(=O)c1cc(Cl)c(Oc2ccncc2C(=O)N2CCN(C3CC3)c3ccccc32)cc1Cl` [Example 54, 4-{2,5-Dichloro-4-[3-(4-cyclopropyl-3,4-dihydro-2H-quinoxaline-1-carbonyl)-pyridin-4-yloxy]-benzoylamino}-heptanedioic acid dimethyl ester] registered an EC50 of 300 nM.

The compound `O=C(c1cnccc1Oc1cc(Cl)c(CO)cc1Cl)N1CCN(C2CC2)c2ccccc21` [Example 55, (4-Cyclopropyl-3,4-dihydro-2H-quinoxalin-1-yl)-[4-(2,5-dichloro-4-hydroxymethyl-phenoxy)-pyridin-3-yl]-methanone] yielded an EC50 of 3 nM.

The compound `N#Cc1cc(Cl)c(Oc2ccncc2C(=O)N2CCN(C3CC3)c3ccccc32)cc1Cl` [Example 56, 2,5-Dichloro-4-[3-(4-cyclopropyl-3,4-dihydro-2H-quinoxaline-1-carbonyl)-pyridin-4-yloxy]-benzonitrile] came in with an EC50 of 3 nM.

On to `O=C(c1cnccc1Oc1cc(Cl)c(O)cc1Cl)N1CCN(C2CC2)c2ccccc21` [Example 57, (4-Cyclopropyl-3,4-dihydro-2H-quinoxalin-1-yl)-[4-(2,5-dichloro-4-hydroxy-phenoxy)-pyridin-3-yl]-methanone], for which the EC50 came to 10 nM.
